Drawing on PubChem BioAssay (NCI), this text covers GI50 and TGI for seven compounds.

Some test systems named below: IGROV1 ovarian; SK-OV-3 ovarian; A498 renal; COLO 205 colon; SW-620 colon; SNB-75 CNS; DU-145 prostate; HT29 colon; HL-60(TB) leukemia; OVCAR-8 ovarian.
What all share (assay): DTP human tumour cell line panel, 48 h

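How tested: cells in 96-well plates exposed to compound for 48 hours at five concentrations. GI50 is the concentration that inhibits growth by half. The concentration for full growth arrest is given as TGI.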

`NCCCNc1nc2ccccc2c2c(=O)c3cc(F)ccc3sc12`: the GI50 – broadly, the concentration giving 50% growth inhibition – is 1.42 µM with IGROV1 ovarian; 1.56 µM in the experiment with SK-OV-3 ovarian; 1.48 µM with A498 renal; 1.69 µM in the experiment with COLO 205 colon; 1.64 µM in the experiment on SW-620 colon; 1.31 µM with SNB-75 CNS. The GI50 in the experiment on DU-145 prostate was 1.73 µM; in the experiment on HT29 colon, 1.54 µM. The TGI – broadly, the concentration at which net growth stops – turned out to be 2.9 µM with IGROV1 ovarian; 3.31 µM with SK-OV-3 ovarian; 3.36 µM in the experiment on A498 renal; 3.48 µM in the experiment with COLO 205 colon; 3.27 µM in the experiment with SW-620 colon; 2.64 µM in the experiment with SNB-75 CNS. In addition, the concentration for total growth inhibition (TGI) turned out to be 3.21 µM in the experiment with DU-145 prostate and 3.14 µM in the experiment with HT29 colon.
For the compound `COC(=O)c1c[nH]c2cc(OC(C)C)c(OC(C)C)cc2c1=O`, the GI50 with IGROV1 ovarian, in the experiment on SK-OV-3 ovarian, in the experiment on A498 renal, with HL-60(TB) leukemia, in the experiment on COLO 205 colon and in the experiment on OVCAR-8 ovarian was above 100 µM in each case. The GI50 with SW-620 colon, in the experiment on SNB-75 CNS, in the experiment on DU-145 prostate and with HT29 colon was above 100 µM each time. In addition, the TGI in the experiment on IGROV1 ovarian, in the experiment on SK-OV-3 ovarian, in the experiment on A498 renal, with HL-60(TB) leukemia, in the experiment with COLO 205 colon and in the experiment with OVCAR-8 ovarian was above 100 µM in each case. Moreover, the TGI in the experiment on SW-620 colon, with SNB-75 CNS, in the experiment on DU-145 prostate and with HT29 colon was above 100 µM in each case.
Take `O=C1/C(=C\c2ccc(F)cc2)CN(C(=O)c2ccccc2F)C/C1=C\c1ccc(F)cc1`: the GI50 in the experiment on IGROV1 ovarian is 1.82 µM; in the experiment on SK-OV-3 ovarian, 2.23 µM; in the experiment with A498 renal, 2.02 µM; in the experiment with HL-60(TB) leukemia, 1.11 µM; in the experiment on COLO 205 colon, 1.86 µM; with OVCAR-8 ovarian it was 1.72 µM. The GI50 is 0.428 µM with SW-620 colon, 2.64 µM with SNB-75 CNS, 2.07 µM in the experiment on DU-145 prostate and 0.373 µM in the experiment on HT29 colon. Besides, the total growth inhibition concentration (TGI) with IGROV1 ovarian came out at 3.62 µM; in the experiment on SK-OV-3 ovarian it was 4.69 µM; with A498 renal, 6.71 µM; with HL-60(TB) leukemia, 4.57 µM; with COLO 205 colon, 3.54 µM; with OVCAR-8 ovarian it was 5.14 µM. Further, the TGI with SW-620 colon amounted to 1.73 µM; with SNB-75 CNS, 10.9 µM; in the experiment on DU-145 prostate, 4.15 µM; in the experiment with HT29 colon, 1.35 µM.
For `Cc1sc(C(=O)c2cncnc2N[C@@H]2C[C@H](COS(N)(=O)=O)[C@@H](O)C2)cc1[C@@H]1NCCc2ccc(Cl)cc21`, the GI50 in the experiment with IGROV1 ovarian was 11 µM; in the experiment on SK-OV-3 ovarian, 2.65 µM; with A498 renal it was 4.26 µM; with HL-60(TB) leukemia, 0.294 µM; in the experiment with COLO 205 colon it was 0.041 µM; in the experiment on OVCAR-8 ovarian it was 11.7 µM. For the same compound, the GI50 with SW-620 colon is 7.63 µM; with SNB-75 CNS, 1.65 µM; in the experiment on DU-145 prostate, 13.2 µM; in the experiment on HT29 colon, 0.234 µM. Also, the TGI was determined as 25.7 µM in the experiment with IGROV1 ovarian; 25.2 µM in the experiment on SK-OV-3 ovarian; 20.2 µM in the experiment with A498 renal; 13.2 µM in the experiment on HL-60(TB) leukemia; 11.8 µM in the experiment with COLO 205 colon; 58.7 µM in the experiment on OVCAR-8 ovarian. Also, the TGI came out at 24.5 µM with SW-620 colon, 20.1 µM with SNB-75 CNS, 27.8 µM in the experiment on DU-145 prostate and 20.9 µM in the experiment on HT29 colon.
`O=C(Nc1ccncc1)C(=O)c1cn(S(=O)(=O)c2cccc(Cl)c2)c2ccccc12`: the GI50 was 24.1 µM in the experiment on IGROV1 ovarian; 30.2 µM in the experiment on SK-OV-3 ovarian; 25.4 µM in the experiment with A498 renal; 3.94 µM in the experiment with HL-60(TB) leukemia; 24.8 µM in the experiment with COLO 205 colon; 7.98 µM with OVCAR-8 ovarian. The GI50 is 4.74 µM with SW-620 colon, 5.16 µM in the experiment with SNB-75 CNS, 10.9 µM in the experiment with DU-145 prostate and 3.62 µM in the experiment on HT29 colon. The total growth inhibition concentration (TGI) in the experiment on IGROV1 ovarian is above 100 µM; with SK-OV-3 ovarian, above 100 µM; in the experiment with A498 renal, above 100 µM; in the experiment on HL-60(TB) leukemia, above 100 µM; in the experiment with COLO 205 colon, 70.3 µM; in the experiment with OVCAR-8 ovarian, above 100 µM. Besides, the TGI with SW-620 colon was above 100 µM; with SNB-75 CNS it was 23.2 µM; with DU-145 prostate, above 100 µM; in the experiment with HT29 colon it was above 100 µM.
As to `CC12OC(CC(O)C1O)n1c3ccccc3c3c4c(c5c6ccccc6n2c5c31)C(=O)N(CCN1CCOCC1)C4=O` (stereo unspecified), the GI50 was 0.98 µM in the experiment with IGROV1 ovarian; 1.19 µM in the experiment on SK-OV-3 ovarian; 0.838 µM in the experiment on A498 renal; 0.989 µM with HL-60(TB) leukemia; 0.606 µM with COLO 205 colon; 1.43 µM in the experiment with OVCAR-8 ovarian. Besides, the GI50 in the experiment with SW-620 colon is 0.626 µM; with SNB-75 CNS it was 0.765 µM; in the experiment with DU-145 prostate, 0.949 µM; in the experiment with HT29 colon, 0.968 µM. The total growth inhibition concentration (TGI) with IGROV1 ovarian is 8.65 µM; with SK-OV-3 ovarian it was 4.13 µM; in the experiment with A498 renal, 3.27 µM; in the experiment with HL-60(TB) leukemia, 7.08 µM; in the experiment with COLO 205 colon, 4.51 µM; with OVCAR-8 ovarian, 8.71 µM. For the same compound, the TGI amounted to 7.42 µM in the experiment with SW-620 colon, 5.37 µM in the experiment on SNB-75 CNS, 6.1 µM in the experiment with DU-145 prostate and 6.83 µM in the experiment with HT29 colon.
For the compound `CCN1CCN(c2nc(C)cc(NCc3cc(Nc4ccnc5cc(Cl)ccc45)ccc3F)n2)CC1`, the GI50 in the experiment on IGROV1 ovarian was 2.2 µM; with SK-OV-3 ovarian, 4.14 µM; in the experiment on A498 renal, 1.94 µM; with HL-60(TB) leukemia, 2.22 µM; in the experiment with COLO 205 colon, 1.77 µM; with OVCAR-8 ovarian, 3.2 µM. Further, the GI50 in the experiment with SW-620 colon is 1.78 µM; with SNB-75 CNS, 1.37 µM; in the experiment on DU-145 prostate it was 3.23 µM; in the experiment with HT29 colon, 1.96 µM. Besides, the TGI stood at 7.27 µM in the experiment with IGROV1 ovarian; 15 µM in the experiment with SK-OV-3 ovarian; 4.01 µM in the experiment with A498 renal; 4.55 µM in the experiment with HL-60(TB) leukemia; 3.95 µM in the experiment with COLO 205 colon; 13.7 µM with OVCAR-8 ovarian. Besides, the TGI came out at 4.81 µM with SW-620 colon, 3.52 µM with SNB-75 CNS, 12.1 µM in the experiment on DU-145 prostate and 6.17 µM with HT29 colon.
